# Molecular target: Metabotropic glutamate receptor 4 (Homo sapiens, UniProt Q14833)
# Experiment: Receptor Activity Assay: The disclosed compounds and compositions can be evaluated for their ability to act as a potentiator of metabotropic glutamate receptor activity, in particular mGluR4 activity, by any suitable known methodology known in the art. For example, Chinese Hamster Ovary (CHO) cells transfected with human mGluR4 or HEK cells co-transfected with rat mGuR4 and the G-protein regulated Inwardly Rectifying Potassium channel (GIRK) were plated in clear bottom assay plates for assay in a Hamamatsu FDSS Fluorometric Plate Reader. The cells were loaded with either a Ca2+-sensitive fluorescent dye or the thallium responsive dye and the plates were washed and placed into a suitable kinetic plate reader. For human mGuR4 assays, a fluorescence baseline was established for 3-5 seconds, the disclosed compounds were then added to the cells, and the response in cells was measured. Approximately two and a half minutes later, a concentration of mGuR4 orthosteric agonist (e.g. glutamate or L-AP4) eliciting approximately 20% (EC20) of the maximal agonist response was added to the cells, and the response was measured. Two minutes later, a concentration of mGluR4 agonist (e.g. glutamate or L-AP4) eliciting 80% (EC80) of the maximal agonist response was added to the cells, and the response was measured. For rat mGuR4/GIRK experiments, a baseline was established for approximately five seconds, disclosed compounds were added, and either an EC20 or EC80 concentration of agonist was added approximately two and one half minutes later.
# Metabotropic glutamate receptor 4, sequence (Q14833 whole entry): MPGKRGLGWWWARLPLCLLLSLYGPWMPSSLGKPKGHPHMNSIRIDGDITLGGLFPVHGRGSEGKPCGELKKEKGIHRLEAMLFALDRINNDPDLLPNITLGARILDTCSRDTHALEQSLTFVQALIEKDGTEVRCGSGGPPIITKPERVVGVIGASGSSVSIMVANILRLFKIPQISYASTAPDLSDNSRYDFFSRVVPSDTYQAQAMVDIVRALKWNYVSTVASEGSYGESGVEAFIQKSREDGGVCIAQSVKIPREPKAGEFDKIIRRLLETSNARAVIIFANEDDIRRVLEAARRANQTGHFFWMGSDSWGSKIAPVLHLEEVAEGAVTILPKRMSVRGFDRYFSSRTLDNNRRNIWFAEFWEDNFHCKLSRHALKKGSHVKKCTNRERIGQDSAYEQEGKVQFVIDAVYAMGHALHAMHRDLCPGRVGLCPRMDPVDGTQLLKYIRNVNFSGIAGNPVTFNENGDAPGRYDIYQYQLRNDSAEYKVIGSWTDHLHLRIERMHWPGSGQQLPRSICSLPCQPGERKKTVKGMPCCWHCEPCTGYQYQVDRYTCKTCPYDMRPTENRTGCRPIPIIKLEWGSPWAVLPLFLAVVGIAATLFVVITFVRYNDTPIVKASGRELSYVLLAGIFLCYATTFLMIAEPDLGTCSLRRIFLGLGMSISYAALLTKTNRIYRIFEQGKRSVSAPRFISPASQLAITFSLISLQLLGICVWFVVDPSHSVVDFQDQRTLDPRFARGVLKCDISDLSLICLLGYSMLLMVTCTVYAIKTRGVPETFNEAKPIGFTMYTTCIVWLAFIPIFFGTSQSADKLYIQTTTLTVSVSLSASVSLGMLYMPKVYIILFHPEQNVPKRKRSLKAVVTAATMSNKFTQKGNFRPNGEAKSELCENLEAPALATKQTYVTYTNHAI
row,SMILES,EC50 [nM]
1,Fc1cnc2[nH]nc(Nc3ccc4c(OC5CCOCC5)nccc4c3)c2c1,118
2,c1cnc2c(Nc3ccc4c(OCCN5CCOCC5)nccc4c3)n[nH]c2c1,41.2
3,c1cnc2c(Nc3ccc4c(OC5CCOCC5)nccc4c3)n[nH]c2c1,12.6
4,c1cnc2c(Nc3ccc4c(O[C@H]5CCCOC5)nccc4c3)n[nH]c2c1,27.3
5,CO[C@H](C)COc1nccc2cc(Nc3n[nH]c4cccnc34)ccc12,14.5
6,C[C@@H]1C[C@H](Oc2nccc3cc(Nc4n[nH]c5cccnc45)ccc23)CO1,48.3
7,c1cc2cc(Nc3n[nH]c4nccnc34)ccc2c(O[C@H]2CCOC2)n1,22.1
8,C[C@H]1C[C@H](Oc2nccc3cc(Nc4n[nH]c5cccnc45)ccc23)CO1,26.9
9,CO[C@H](C)COc1nccc2cc(Nc3n[nH]c4nccnc34)ccc12,17.5
10,c1cnc2c(Nc3ccc4c(O[C@@H]5CCOC5)nccc4c3)n[nH]c2c1,36.1
11,CCOCCOc1nccc2cc(Nc3n[nH]c4cccnc34)ccc12,22.3
12,c1cc2cc(Nc3n[nH]c4nccnc34)ccc2c(OCC2CCOC2)n1 (stereo not drawn),10.4
13,COCCOc1nccc2cc(Nc3n[nH]c4nccnc34)ccc12,35.2
14,COCCOc1nccc2cc(Nc3n[nH]c4ccccc34)ccc12,76.9
15,Fc1cnc2c(Nc3ccc4c(O[C@H]5CCOC5)nccc4c3)n[nH]c2c1,82.3
16,COCCOc1nccc2cc(Nc3n[nH]c4cc(F)cnc34)ccc12,69
17,c1cc2cc(Nc3n[nH]c4nccnc34)ccc2c(O[C@@H]2CCOC2)n1,43.6
18,C[C@H]1OCC[C@H]1Oc1nccc2cc(Nc3n[nH]c4cccnc34)ccc12,55.9
19,c1cnc2c(Nc3ccc4c(O[C@H]5CCOC5)nccc4c3)n[nH]c2c1,37.6
20,CCOCCOc1nccc2cc(Nc3n[nH]c4nccnc34)ccc12,21.5
21,c1cc2cc(Nc3n[nH]c4nccnc34)ccc2c(OCC2CCOCC2)n1,16.1
22,COCCOc1nccc2cc(Nc3n[nH]c4cccnc34)ccc12,19.9
23,c1cnc2c(Nc3ccc4c(OCC5CCOCC5)nccc4c3)n[nH]c2c1,11.6
24,COCCOc1nccc2cc(Nc3n[nH]c4ncc(F)cc34)ccc12,82.3
25,CCOCCOc1nccc2cc(Nc3n[nH]c4ncccc34)ccc12,48.4
26,c1cnc2c(Nc3ccc4c(O[C@@H]5CCCOC5)nccc4c3)n[nH]c2c1,31.9
27,c1cnc2c(Nc3ccc4c(OCC5CCCOC5)nccc4c3)n[nH]c2c1 (stereo not drawn),15.7

# Continued, values first:
row,EC50 [nM],SMILES
1,154,C[C@H]1OCC[C@H]1Oc1nccc2cc(Nc3n[nH]c4ncccc34)ccc12
2,70.7,C[C@H]1C[C@H](Oc2nccc3cc(Nc4n[nH]c5ncccc45)ccc23)CO1
3,45.9,c1cnc2[nH]nc(Nc3ccc4c(OCC5CCOCC5)nccc4c3)c2c1
4,12.6,c1cnc2c(Nc3ccc4c(OCC5COCCO5)nccc4c3)n[nH]c2c1 (stereo not drawn)
5,121,c1cnc2[nH]nc(Nc3ccc4c(OCC5COCCO5)nccc4c3)c2c1 (stereo not drawn)
6,77.1,CO[C@H](C)COc1nccc2cc(Nc3n[nH]c4ncccc34)ccc12
7,75.2,c1cnc2[nH]nc(Nc3ccc4c(OCC5CCCCO5)nccc4c3)c2c1 (stereo not drawn)
8,51.5,COCCOc1nccc2cc(Nc3n[nH]c4ncccc34)ccc12
9,64,c1cnc2[nH]nc(Nc3ccc4c(O[C@@H]5CCOC5)nccc4c3)c2c1
10,54.3,c1cnc2[nH]nc(Nc3ccc4c(OCC5CCOC5)nccc4c3)c2c1 (stereo not drawn)
11,28.5,c1cc2cc(Nc3n[nH]c4nccnc34)ccc2c(OCC2COCCO2)n1 (stereo not drawn)
12,35.9,Fc1cnc2c(Nc3ccc4c(OCC5COCCO5)nccc4c3)n[nH]c2c1 (stereo not drawn)
13,12,c1cnc2c(Nc3ccc4c(OCC5CCOC5)nccc4c3)n[nH]c2c1 (stereo not drawn)
14,44.2,c1cnc2[nH]nc(Nc3ccc4c(O[C@H]5CCOC5)nccc4c3)c2c1
15,148,c1cnc2[nH]nc(Nc3ccc4c(OCCN5CCOCC5)nccc4c3)c2c1
16,152,C[C@@H]1C[C@H](Oc2nccc3cc(Nc4n[nH]c5ncccc45)ccc23)CO1
